Laboratory results published in patent US10676485B2, “Macrocyclic MCL-1 inhibitors and methods of use” (AbbVie Inc., priority 2017, dated 2020).
Like-named read-outs stand apart in the source and are kept apart here.

Assays:
GST-MCL-1 = GST-MCL-1 (Homo sapiens (Human), UniProt Q07820); assay: TR-FRET MCL-1 binding assay (competition with probe F-Bak)
Description: For the assay, an acoustic dispenser was used to prepare dilution series from 10 mM test compounds in 100% DMSO and directly transfer 160 nL into low volume 384-well assay plates. 8 μL of a protein/probe/antibody mix was then added to each well resulting in final concentrations listed below: Test compound: 11 three-fold dilutions beginning at 25 μM
The samples were then mixed on a shaker for 1 minute and incubated for an additional 2 hours at room temperature. For each assay plate, a probe/antibody and protein/antibody/probe mixture were included as a negative and a positive control, respectively. Fluorescence was measured on the Envision (Perkin Elmer) using a 340/35 nm excitation filter and 520/525 (F-Bak) and 495/510 nm (Tb-labeled anti-his antibody) emission filters. […] The TR-FRET assay can be performed in the presence of varying concentrations of human serum (HS) or fetal bovine serum (FBS). Compounds were tested both without HS and in the presence of 10% HS.

[1] = test system: AMO-1 human multiple myeloma tumor cell line; assay: AMO-1 cell viability assay (CellTiter-Glo); format: cell-based; details: AMO1, read-out: AMO-1 Viability IC50 (μM), 10% FBS, 24 hours of compound treatment
Description: (§1) In one exemplary set of conditions, NCI-H929 or AMO-1 (ATCC. Manassas, Va.) were plated 4.000 cells per well in 384-well tissue culture plates (Corning. Corning, N.Y.) in a total volume of 25 μL RPMI tissue culture medium supplemented with 10% fetal bovine serum (Sigma-Aldrich, St. Louis, Mo.) and treated with a 3-fold serial dilution of the compounds of interest with a Labcyte Echo from a final concentration of 10 μM to 0.0005 μM. Each concentration was tested in duplicate at least 3 independent times. A luminescent signal proportional to the number of viable cells following 24 hours of compound treatment was determined using the CellTiter-Glo® Luminescent Cell Viability Assay according to the manufacturer's recommendations (Promega Corp., Madison, Wis.). The plates were read in a Perkin Elmer Envision using a Luminescence protocol. To generate dose response curves the data is normalized to percent viability by setting the averages of the staurosporine (10 uM) and DMSO only control wells to 0% and (00)% viability respectively. The IC50 values for the compounds are generated by fitting the normalized data with Accelrys Assay Explorer 3.3 to a sigmoidal curve model using linear regression.

[2] = test system: NCI-H929 human multiple myeloma tumor cell line; assay: NCI-H929 cell viability assay (CellTiter-Glo); format: cell-based; details: NCI-H929, read-out: H929 Viability IC50 (μM), 10% FBS, 24 hours of compound treatment
Description: as §1

[3] = read-out: MCL-1 Binding Ki (nM, 10% HS), in the presence of 10% HS
[4] = without HS, read-out: MCL-1 Binding Ki

GST-MCL-1, sequence (Q07820 whole entry): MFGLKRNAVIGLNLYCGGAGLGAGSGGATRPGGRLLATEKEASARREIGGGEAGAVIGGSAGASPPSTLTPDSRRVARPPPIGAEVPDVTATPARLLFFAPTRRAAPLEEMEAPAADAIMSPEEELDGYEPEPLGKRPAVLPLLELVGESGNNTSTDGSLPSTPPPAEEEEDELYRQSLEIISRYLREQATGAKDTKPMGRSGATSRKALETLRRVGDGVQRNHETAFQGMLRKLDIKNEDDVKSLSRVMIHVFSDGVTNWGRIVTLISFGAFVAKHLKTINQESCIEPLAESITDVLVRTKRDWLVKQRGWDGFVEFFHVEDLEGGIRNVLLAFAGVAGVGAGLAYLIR

Compound | Ki (GST-MCL-1; [3]) [nM] | Ki (GST-MCL-1; [4]) [nM] | IC50 [1] [nM] | IC50 [2] [µM]
Cc1c(Cl)c2c(Cl)c(C)c1-c1c(-c3ccc(F)cc3)sc3ncnc(c13)O[C@@H](C(=O)O)Cc1cc(ccc1OCc1cncc(-c3ccc(OC[C@H]4COCCO4)cc3)n1)OC[C@@H](CN1CCN(C)CC1)O2 [Example 16, (7R,16R)-19,23-dichloro-10-{[6-(4-{[(2R)-1,4-dioxan-2-yl]methoxy}phenyl)pyrazin-2-yl]methoxy}-1-(4-fluorophenyl)-20,22-dimethyl-16-[(4-methylpiperazin-1-yl)methyl]-7,8,15,16-tetrahydro-18,21-etheno-13,9-(metheno)-6,14,17-trioxa-2-thia-3,5-diazacyclononadeca[1,2,3-cd]indene-7-carboxylic acid] | 0.83 | 0.048 | 0.245 | 0.000592
Cc1c(Cl)c2c(Cl)c(C)c1-c1c(-c3ccc(F)cc3)sc3ncnc(c13)O[C@@H](C(=O)O)Cc1cc(ccc1OCc1ccnc(C3COCCOC3)n1)OC[C@@H](CN1CCN(C)CC1)O2 [Example 30, (7R,16R)-19,23-dichloro-10-{[2-(1,4-dioxepan-6-yl)pyrimidin-4-yl]methoxy}-1-(4-fluorophenyl)-20,22-dimethyl-16-[(4-methylpiperazin-1-yl)methyl]-7,8,15,16-tetrahydro-18,21-etheno-13,9-(metheno)-6,14,17-trioxa-2-thia-3,5-diazacyclononadeca[1,2,3-cd]indene-7-carboxylic acid] | 0.16 | 0.015 | 0.285 | 0.000974
Cc1c(Cl)c2c(Cl)c(C)c1-c1c(-c3ccc(F)cc3)sc3ncnc(c13)O[C@@H](C(=O)O)Cc1cc(ccc1OCc1ccnc(N3CC(COC[C@H]4COCCO4)C3)n1)OC[C@@H](CN1CCN(C)CC1)O2 [Example 12, (7R,16R)-19,23-dichloro-10-({2-[3-({[(2S)-1,4-dioxan-2-yl]methoxy}methyl)azetidin-1-yl]pyrimidin-4-yl}methoxy)-1-(4-fluorophenyl)-20,22-dimethyl-16-[(4-methylpiperazin-1-yl)methyl]-7,8,15,16-tetrahydro-18,21-etheno-9,13-(metheno)-6,14,17-trioxa-2-thia-3,5-diazacyclononadeca[1,2,3-cd]indene-7-carboxylic acid] | 0.61 | 0.076 | 1.04 | 0.00208
Cc1c(Cl)c2c(Cl)c(C)c1-c1c(C3=CCCC3)sc3ncnc(c13)O[C@@H](C(=O)O)Cc1cc(ccc1OCc1ccnc(C3=CC[C@@](F)(COC[C@H]4COCCO4)CC3)n1)OC[C@@H](CN1CCN(C)CC1)O2 [Example 48, (7R,16R)-19,23-dichloro-1-(cyclopent-1-en-1-yl)-10-({2-[(4R)-4-({[(2R)-1,4-dioxan-2-yl]methoxy}methyl)-4-fluorocyclohex-1-en-1-yl]pyrimidin-4-yl}methoxy)-20,22-dimethyl-16-[(4-methylpiperazin-1-yl)methyl]-7,8,15,16-tetrahydro-18,21-etheno-13,9-(metheno)-6,14,17-trioxa-2-thia-3,5-diazacyclononadeca[1,2,3-cd]indene-7-carboxylic acid] | 0.648 | 0.026 | 0.641 | 0.000593
Cc1c(Cl)c2c(Cl)c(C)c1-c1c(-c3ccc(F)cc3)sc3ncnc(c13)O[C@@H](C(=O)O)Cc1cc(ccc1OCc1ccnc(C3=CC[C@](F)(COC[C@H]4COCCO4)CC3)n1)OC[C@@H](CN1CCN(C)CC1)O2 [Example 40, (7R,16R)-19,23-dichloro-10-({2-[(4S)-4-({[(2R)-1,4-dioxan-2-yl]methoxy}methyl)-4-fluorocyclohex-1-en-1-yl]pyrimidin-4-yl}methoxy)-1-(4-fluorophenyl)-20,22-dimethyl-16-[(4-methylpiperazin-1-yl)methyl]-7,8,15,16-tetrahydro-18,21-etheno-13,9-(metheno)-6,14,17-trioxa-2-thia-3,5-diazacyclononadeca[1,2,3-cd]indene-7-carboxylic acid] | 0.63 | 0.014 | 0.352 | 0.000271
Cc1c(Cl)c2c(Cl)c(C)c1-c1c(C3CCC3)sc3ncnc(c13)O[C@@H](C(=O)O)Cc1cc(ccc1OCc1ccnc([C@H]3CC[C@H](OC[C@H]4COCCO4)CC3)n1)OC[C@@H](CN1CCN(C)CC1)O2 [Example 52, (7R,16R)-19,23-dichloro-1-cyclobutyl-10-({2-[(1R,4r)-4-{[(2R)-1,4-dioxan-2-yl]methoxy}cyclohexyl]pyrimidin-4-yl}methoxy)-20,22-dimethyl-16-[(4-methylpiperazin-1-yl)methyl]-7,8,15,16-tetrahydro-18,21-etheno-13,9-(metheno)-6,14,17-trioxa-2-thia-3,5-diazacyclononadeca[1,2,3-cd]indene-7-carboxylic acid] | 0.72 | < 0.01 | 0.448 | 0.00118
Cc1c(Cl)c2c(Cl)c(C)c1-c1c(-c3ccc(F)cc3)sc3ncnc(c13)O[C@@H](C(=O)O)Cc1cc(ccc1OCc1ccnc(-c3cccc(OC[C@@H]4COCCO4)c3)n1)OC[C@@H](CN1CCN(C)CC1)O2 [Example 22, (7R,16R)-19,23-dichloro-10-{[2-(3-{[(2S)-1,4-dioxan-2-yl]methoxy}phenyl)pyrimidin-4-yl]methoxy}-1-(4-fluorophenyl)-20,22-dimethyl-16-[(4-methylpiperazin-1-yl)methyl]-7,8,15,16-tetrahydro-18,21-etheno-13,9-(metheno)-6,14,17-trioxa-2-thia-3,5-diazacyclononadeca[1,2,3-cd]indene-7-carboxylic acid] | 0.89 | 0.016 | 0.142 | 0.000333
Cc1c(Cl)c2c(Cl)c(C)c1-c1c(-c3ccc(F)cc3)sc3ncnc(c13)O[C@@H](C(=O)O)Cc1cc(ccc1OCc1ccnc(C3=CC[C@@](F)(COC[C@@H]4COCCO4)CC3)n1)OC[C@@H](CN1CCN(C)CC1)O2 [Example 42, (7R,16R)-19,23-dichloro-10-({2-[(4R)-4-({[(2S)-1,4-dioxan-2-yl]methoxy}methyl)-4-fluorocyclohex-1-en-1-yl]pyrimidin-4-yl}methoxy)-1-(4-fluorophenyl)-20,22-dimethyl-16-[(4-methylpiperazin-1-yl)methyl]-7,8,15,16-tetrahydro-18,21-etheno-13,9-(metheno)-6,14,17-trioxa-2-thia-3,5-diazacyclononadeca[1,2,3-cd]indene-7-carboxylic acid] | 0.24 | 0.018 | 0.404 | 0.000356
Cc1c(Cl)c2c(Cl)c(C)c1-c1c(-c3ccc(F)cc3)sc3ncnc(c13)O[C@@H](C(=O)O)Cc1cc(ccc1OCc1ccnc(C3=CC[C@@](F)(COC[C@H]4COCCO4)CC3)n1)OC[C@@H](CN1CCN(C)CC1)O2 [Example 43, (7R,16R)-19,23-dichloro-10-({2-[(4R)-4-({[(2R)-1,4-dioxan-2-yl]methoxy}methyl)-4-fluorocyclohex-1-en-1-yl]pyrimidin-4-yl}methoxy)-1-(4-fluorophenyl)-20,22-dimethyl-16-[(4-methylpiperazin-1-yl)methyl]-7,8,15,16-tetrahydro-18,21-etheno-13,9-(metheno)-6,14,17-trioxa-2-thia-3,5-diazacyclononadeca[1,2,3-cd]indene-7-carboxylic acid] | 0.18 | 0.02 | 0.346 | 0.000365
Cc1c(Cl)c2c(Cl)c(C)c1-c1c(-c3ccc(F)cc3)sc3ncnc(c13)O[C@@H](C(=O)O)Cc1cc(ccc1OCc1ccnc(-c3cccc(OC[C@H]4COCCO4)c3)n1)OC[C@@H](CN1CCN(C)CC1)O2 [Example 21, (7R,16R)-19,23-dichloro-10-{[2-(3-{[(2R)-1,4-dioxan-2-yl]methoxy}phenyl)pyrimidin-4-yl]methoxy}-1-(4-fluorophenyl)-20,22-dimethyl-16-[(4-methylpiperazin-1-yl)methyl]-7,8,15,16-tetrahydro-18,21-etheno-13,9-(metheno)-6,14,17-trioxa-2-thia-3,5-diazacyclononadeca[1,2,3-cd]indene-7-carboxylic acid] | 1.01 | 0.011 | 0.0488 | 0.000168
Cc1c(Cl)c2c(Cl)c(C)c1-c1c(-c3ccc(F)cc3)sc3ncnc(c13)O[C@@H](C(=O)O)Cc1cc(ccc1OCc1ccnc(-c3ccc(OC[C@@H]4COCCO4)nc3)n1)OC[C@@H](CN1CCN(C)CC1)O2 [Example 6, (7R,16R)-19,23-dichloro-10-{[2-(6-{[(2S)-1,4-dioxan-2-yl]methoxy}pyridin-3-yl)pyrimidin-4-yl]methoxy}-1-(4-fluorophenyl)-20,22-dimethyl-16-[(4-methylpiperazin-1-yl)methyl]-7,8,15,16-tetrahydro-18,21-etheno-13,9-(metheno)-6,14,17-trioxa-2-thia-3,5-diazacyclononadeca[1,2,3-cd]indene-7-carboxylic acid] | 6.09 | 0.926 | 0.135 | 0.000359
